Values quoted from earlier work in patent US20030082102A1, “Radioactive platinum complexes for cancer treatment” (priority 2001, published 2003).
Read-outs that look alike come from different tables or passages of the source.

Tests used:
[1] = system: tissue culture; conditions: non-radioactive drug with external radiation
[2] = tracer quantities
[3] = system: mammalian cells; conditions: for radiopotentiation / potentiation of chemotherapy effectiveness: cell culture, Howell 1994

## N.N.O=C([O-])C1(C(=O)[O-])CCC1.[Pt+2] [Carboplatin, 1,1-Cyclobutanedicarboxylate diamine platinum (II)]
[1]
  Radiation enhancer in vitro?: Yes

## CC(C)N.CC(C)N.[Cl-].[Cl-].[OH-].[OH-].[Pt] [Iproplatin, Cis-dichloro,trans-dihydroxybis-isopropylamine platinum (IV)]
[1]
  Radiation enhancer in vitro?: Yes

## CC(=O)[O][Pt]([NH2])([Cl])([Cl])([NH]C1CCCCC1)[O]C(C)=O [JM216]
[1]
  Radiation enhancer in vitro?: Yes

## [NH2][Pt]([NH2])([Cl])[Cl] [^195mPt-cisplatinum]
[2]; intra-arterial infusion, patients with nonresectable hepatoma
  tumor drug level (tumor uptake): 34-55 % of given dose
[2]; intravenous route
  tumor drug level (tumor uptake): < 5 % of given dose
[3]; cell culture studies, Howell et al 1994
  radiotoxicity above and beyond chemical toxicity: no radiotoxicity above and beyond its chemical toxicity
[3]
  radiopotentiation / potentiation of chemotherapy effectiveness: no potentiation of chemotherapy effectiveness

## N.N.[Cl][Pt+2][Cl] [^195mPt-trans-cisplatinum]
[3]
  radiopotentiation / potentiation of chemotherapy effectiveness: showed radiopotentiation
